SMILES strings stand for the structures.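 Values below derive from 48-hour exposures of cells grown in 96-well plates, with endpoints linearly interpolated between the two concentrations bracketing the appropriate inhibition level. TGI marks complete inhibition of growth.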

One assay has as its system MDA-MB-231 breast. Nature of the assay: NCI tumour cell line growth inhibition, 48 h.
On to `CC1=NC(=Cc2cc(Br)cc(Br)c2)C(=O)N1n1c(-c2ccccc2)nc2ccccc2c1=O`, for which the TGI is over 100 µM.

For the compound `CN1C(=O)c2ccccc2OC12C=Cc1ccc(O)cc1O2` (stereo unspecified), the TGI worked out at 82.1 µM.

The compound `CN(C)CC1CCC/C(=C\c2ccc(Cl)cc2)C1=O` (stereo unspecified) displayed a TGI of 9.21 µM.

Compound `Cc1cc2c(cc1C)C(=O)C1(C2)Cc2c(C)ccc(C)c2C1=O` (stereo unspecified) displayed a TGI of over 100 µM.

The next assay deals with OVCAR-8 ovarian. Description: NCI tumour cell line growth inhibition, 48 h.
For the compound `CC1=NC(=Cc2cc(Br)cc(Br)c2)C(=O)N1n1c(-c2ccccc2)nc2ccccc2c1=O`, the TGI was over 100 µM.

In turn, `CN1C(=O)c2ccccc2OC12C=Cc1ccc(O)cc1O2` (stereo unspecified) came in with a TGI of 37.4 µM.

On to `CN(C)CC1CCC/C(=C\c2ccc(Cl)cc2)C1=O` (stereo unspecified), for which the TGI was 17.4 µM.

Compound `Cc1cc2c(cc1C)C(=O)C1(C2)Cc2c(C)ccc(C)c2C1=O` (stereo unspecified) registered a TGI of over 100 µM.

The next assay concerns MCF7 breast. Nature of the assay: NCI tumour cell line growth inhibition, 48 h.
As for `CC1=NC(=Cc2cc(Br)cc(Br)c2)C(=O)N1n1c(-c2ccccc2)nc2ccccc2c1=O`, the TGI was over 100 µM.

As to `CN1C(=O)c2ccccc2OC12C=Cc1ccc(O)cc1O2` (stereo unspecified), the TGI was over 100 µM.

With `CN(C)CC1CCC/C(=C\c2ccc(Cl)cc2)C1=O` (stereo unspecified), the TGI turned out to be 3.38 µM.

Compound `Cc1cc2c(cc1C)C(=O)C1(C2)Cc2c(C)ccc(C)c2C1=O` (stereo unspecified) displayed a TGI of over 100 µM.

A further assay concerns OVCAR-5 ovarian. Nature of the assay: NCI tumour cell line growth inhibition, 48 h.
As for `CC1=NC(=Cc2cc(Br)cc(Br)c2)C(=O)N1n1c(-c2ccccc2)nc2ccccc2c1=O`, the TGI is over 100 µM.

The compound `CN1C(=O)c2ccccc2OC12C=Cc1ccc(O)cc1O2` (stereo unspecified) returned a TGI of over 100 µM.

Compound `CN(C)CC1CCC/C(=C\c2ccc(Cl)cc2)C1=O` (stereo unspecified) showed a TGI of 35.6 µM.

In turn, `Cc1cc2c(cc1C)C(=O)C1(C2)Cc2c(C)ccc(C)c2C1=O` (stereo unspecified) returned a TGI of over 100 µM.

The next assay concerns UACC-257 melanoma. Description: NCI tumour cell line growth inhibition, 48 h.
Turning to `CC1=NC(=Cc2cc(Br)cc(Br)c2)C(=O)N1n1c(-c2ccccc2)nc2ccccc2c1=O`, the TGI was over 100 µM.

As for `CN1C(=O)c2ccccc2OC12C=Cc1ccc(O)cc1O2` (stereo unspecified), the TGI is 43.6 µM.

Turning to `CN(C)CC1CCC/C(=C\c2ccc(Cl)cc2)C1=O` (stereo unspecified), the TGI was found to be 12.3 µM.

In the case of `Cc1cc2c(cc1C)C(=O)C1(C2)Cc2c(C)ccc(C)c2C1=O` (stereo unspecified), the TGI is over 100 µM.

In the next assay the test system is HOP-92 NSCLC. Nature of the assay: NCI tumour cell line growth inhibition, 48 h.
The compound `CC1=NC(=Cc2cc(Br)cc(Br)c2)C(=O)N1n1c(-c2ccccc2)nc2ccccc2c1=O` displayed a TGI of over 100 µM.

Compound `CN1C(=O)c2ccccc2OC12C=Cc1ccc(O)cc1O2` (stereo unspecified) gave a TGI of 80.9 µM.

In turn, `CN(C)CC1CCC/C(=C\c2ccc(Cl)cc2)C1=O` (stereo unspecified) yielded a TGI of 10.5 µM.

Take `Cc1cc2c(cc1C)C(=O)C1(C2)Cc2c(C)ccc(C)c2C1=O` (stereo unspecified): the TGI was over 100 µM.

For another assay, the system named is EKVX NSCLC. Description: NCI tumour cell line growth inhibition, 48 h.
`CC1=NC(=Cc2cc(Br)cc(Br)c2)C(=O)N1n1c(-c2ccccc2)nc2ccccc2c1=O`: the TGI was over 100 µM.

Compound `CN1C(=O)c2ccccc2OC12C=Cc1ccc(O)cc1O2` (stereo unspecified) gave a TGI of 64.5 µM.

`CN(C)CC1CCC/C(=C\c2ccc(Cl)cc2)C1=O` (stereo unspecified) returned a TGI of 25.7 µM.

Compound `Cc1cc2c(cc1C)C(=O)C1(C2)Cc2c(C)ccc(C)c2C1=O` (stereo unspecified) returned a TGI of over 100 µM.

A further assay has as its system MALME-3M melanoma. Description: NCI tumour cell line growth inhibition, 48 h.
As to `CC1=NC(=Cc2cc(Br)cc(Br)c2)C(=O)N1n1c(-c2ccccc2)nc2ccccc2c1=O`, the TGI is over 100 µM.

Regarding `CN(C)CC1CCC/C(=C\c2ccc(Cl)cc2)C1=O` (stereo unspecified), the TGI is 4.76 µM.

The compound `Cc1cc2c(cc1C)C(=O)C1(C2)Cc2c(C)ccc(C)c2C1=O` (stereo unspecified) displayed a TGI of over 100 µM.

For the next assay, the system named is HCT-15 colon. Nature of the assay: NCI tumour cell line growth inhibition, 48 h.
In turn, `CC1=NC(=Cc2cc(Br)cc(Br)c2)C(=O)N1n1c(-c2ccccc2)nc2ccccc2c1=O` registered a TGI of over 100 µM.

`CN1C(=O)c2ccccc2OC12C=Cc1ccc(O)cc1O2` (stereo unspecified) yielded a TGI of over 100 µM.

Take `CN(C)CC1CCC/C(=C\c2ccc(Cl)cc2)C1=O` (stereo unspecified): the TGI stood at 4.86 µM.

The compound `Cc1cc2c(cc1C)C(=O)C1(C2)Cc2c(C)ccc(C)c2C1=O` (stereo unspecified) came in with a TGI of over 100 µM.

The next assay deals with NCI/ADR-RES ovarian. Description: NCI tumour cell line growth inhibition, 48 h.
Compound `CC1=NC(=Cc2cc(Br)cc(Br)c2)C(=O)N1n1c(-c2ccccc2)nc2ccccc2c1=O` gave a TGI of over 100 µM.

Consider `CN1C(=O)c2ccccc2OC12C=Cc1ccc(O)cc1O2` (stereo unspecified), for which the TGI worked out at 40.4 µM.

The compound `CN(C)CC1CCC/C(=C\c2ccc(Cl)cc2)C1=O` (stereo unspecified) came in with a TGI of 18.9 µM.

Take `Cc1cc2c(cc1C)C(=O)C1(C2)Cc2c(C)ccc(C)c2C1=O` (stereo unspecified): the TGI was over 100 µM.

In a further assay the test system is SF-268 CNS. Description: NCI tumour cell line growth inhibition, 48 h.
Compound `CC1=NC(=Cc2cc(Br)cc(Br)c2)C(=O)N1n1c(-c2ccccc2)nc2ccccc2c1=O` gave a TGI of over 100 µM.

The compound `CN1C(=O)c2ccccc2OC12C=Cc1ccc(O)cc1O2` (stereo unspecified) had a TGI of over 100 µM.

The compound `CN(C)CC1CCC/C(=C\c2ccc(Cl)cc2)C1=O` (stereo unspecified) displayed a TGI of 8.33 µM.

In turn, `Cc1cc2c(cc1C)C(=O)C1(C2)Cc2c(C)ccc(C)c2C1=O` (stereo unspecified) gave a TGI of over 100 µM.

For a further assay, the system named is RXF 393 renal. Description: NCI tumour cell line growth inhibition, 48 h.
Regarding `CC1=NC(=Cc2cc(Br)cc(Br)c2)C(=O)N1n1c(-c2ccccc2)nc2ccccc2c1=O`, the TGI is over 100 µM.

The compound `Cc1cc2c(cc1C)C(=O)C1(C2)Cc2c(C)ccc(C)c2C1=O` (stereo unspecified) gave a TGI of over 100 µM.

The subject of a further assay is NCI-H460 lung. Description: NCI tumour cell line growth inhibition, 48 h.
The compound `CC1=NC(=Cc2cc(Br)cc(Br)c2)C(=O)N1n1c(-c2ccccc2)nc2ccccc2c1=O` displayed a TGI of over 100 µM.

On to `CN1C(=O)c2ccccc2OC12C=Cc1ccc(O)cc1O2` (stereo unspecified), for which the TGI turned out to be 61.8 µM.

With `CN(C)CC1CCC/C(=C\c2ccc(Cl)cc2)C1=O` (stereo unspecified), the TGI was found to be 43.3 µM.

Consider `Cc1cc2c(cc1C)C(=O)C1(C2)Cc2c(C)ccc(C)c2C1=O` (stereo unspecified), for which the TGI is over 100 µM.

The next assay concerns UO-31 renal. Description: NCI tumour cell line growth inhibition, 48 h.
`CC1=NC(=Cc2cc(Br)cc(Br)c2)C(=O)N1n1c(-c2ccccc2)nc2ccccc2c1=O` yielded a TGI of over 100 µM.

In turn, `CN1C(=O)c2ccccc2OC12C=Cc1ccc(O)cc1O2` (stereo unspecified) came in with a TGI of 57.7 µM.

Take `CN(C)CC1CCC/C(=C\c2ccc(Cl)cc2)C1=O` (stereo unspecified): the TGI is 4.52 µM.

On to `Cc1cc2c(cc1C)C(=O)C1(C2)Cc2c(C)ccc(C)c2C1=O` (stereo unspecified), for which the TGI was over 100 µM.

The next assay concerns NCI-H226 lung. Description: NCI tumour cell line growth inhibition, 48 h.
For `CC1=NC(=Cc2cc(Br)cc(Br)c2)C(=O)N1n1c(-c2ccccc2)nc2ccccc2c1=O`, the TGI is over 100 µM.

In the case of `CN1C(=O)c2ccccc2OC12C=Cc1ccc(O)cc1O2` (stereo unspecified), the TGI worked out at 92.8 µM.

For the compound `CN(C)CC1CCC/C(=C\c2ccc(Cl)cc2)C1=O` (stereo unspecified), the TGI came out at 28.8 µM.

For the origin of these results see PubChem BioAssay (NCI).
